The target in data set [1] is T1, PDE 10A (Homo sapiens, UniProt Q9Y233).
T1 construct: is expressed recombinantly in full length in Sf9 insect cells; made in house; host or cells: Sf9 insect cells (Bac-to-Bac baculovirus system); lysate supernatant used as the enzyme preparation
As to the kind of experiment: Inhibition of PDE 10A (in vitro enzyme inhibition test). In kind it is biochemical. As to conditions: recombinant full-length PDE10A expressed in Sf9 insect cells; substrate [5',8-3H] adenosine 3',5'-cyclic phosphate; 60 min at room temperature; scintillation proximity beads. How it is done:
PDE10A (WO 01/29 199, FIG. 1A) is expressed recombinantly in full length in Sf9 insect cells (Invitrogen, Carlsbad, Calif.) with the aid of the Bac-to-Bac™ Baculovirus expression system of Life Technologies (Gaithersburg, Md.). 48 h after the infection, the cells are harvested and suspended in 20 ml (per 1 l of culture) of lysis buffer (50 mM tris HCl, pH 7.4, 50 mM NaCl, 1 mM MgCl2, 1.5 mM EDTA, 10% glycerol plus 20 μl of Protease Inhibitor Cocktail Set III [CalBiochem, La Jolla, Calif. USA]). The cells are treated at 4° C. for 1 minute with ultrasound and subsequently centrifuged at 10000 rpm for 30 minutes at 4° C. The supernatant (PDE10A preparation) was collected and stored at −20° C.
The test substances are dissolved and serially diluted in 100% DMSO for the determination of their in vitro action on PDE 10A. Typically, dilution series of 200 μM to 1.6 μM are prepared (resulting final concentrations in the test: 4 μM to 0.032 μM). In each case, 2 μl of the diluted substance solutions are introduced into the wells of microtitre plates (Isoplate; Wallac Inc., Atlanta, Ga.). 50 μl of a dilution of the PDE10A preparation described above are subsequently added. The dilution of the PDE10A preparation is chosen such that during the later incubation less than 70% of the substrate is reacted (typical dilution: 1:10000; dilution buffer: 50 mM tris/HCl pH 7.5, 8.3 mM MgCl2, 1.7 mM EDTA, 0.2% BSA). The substrate, [5′,8-^3H] adenosine 3′, 5′-cyclic phosphate (1 μCi/μl; Amersham Pharmacia Biotech., Piscataway, N.J.) is diluted 1:2000 to a concentration of 0.0005 μCi/μl with assay buffer (50 mM tris/HCl pH 7.5, 8.3 mM MgCl2, 1.7 mM EDTA). The enzyme reaction is finally started by addition of 50 μl (0.025 μCi) of the diluted substrate. The test batches are incubated at room temperature for 60 min and the reaction is stopped by addition of 25 μl of a suspension containing 18 mg/ml of Yttrium Scintillation Proximity Beads (Amersham Pharmacia Biotech., Piscataway, N.J.). The microtitre plates are sealed using a film and allowed to stand at room temperature for 60 min. The plates are subsequently measured for 30 s per well in a Microbeta scintillation counter (Wallac Inc., Atlanta, Ga.). IC50 values are determined with the aid of graphic plotting of the substance concentration against the percentage inhibition.

T1 sequence (Q9Y233 1-779 isoform Q9Y233-1): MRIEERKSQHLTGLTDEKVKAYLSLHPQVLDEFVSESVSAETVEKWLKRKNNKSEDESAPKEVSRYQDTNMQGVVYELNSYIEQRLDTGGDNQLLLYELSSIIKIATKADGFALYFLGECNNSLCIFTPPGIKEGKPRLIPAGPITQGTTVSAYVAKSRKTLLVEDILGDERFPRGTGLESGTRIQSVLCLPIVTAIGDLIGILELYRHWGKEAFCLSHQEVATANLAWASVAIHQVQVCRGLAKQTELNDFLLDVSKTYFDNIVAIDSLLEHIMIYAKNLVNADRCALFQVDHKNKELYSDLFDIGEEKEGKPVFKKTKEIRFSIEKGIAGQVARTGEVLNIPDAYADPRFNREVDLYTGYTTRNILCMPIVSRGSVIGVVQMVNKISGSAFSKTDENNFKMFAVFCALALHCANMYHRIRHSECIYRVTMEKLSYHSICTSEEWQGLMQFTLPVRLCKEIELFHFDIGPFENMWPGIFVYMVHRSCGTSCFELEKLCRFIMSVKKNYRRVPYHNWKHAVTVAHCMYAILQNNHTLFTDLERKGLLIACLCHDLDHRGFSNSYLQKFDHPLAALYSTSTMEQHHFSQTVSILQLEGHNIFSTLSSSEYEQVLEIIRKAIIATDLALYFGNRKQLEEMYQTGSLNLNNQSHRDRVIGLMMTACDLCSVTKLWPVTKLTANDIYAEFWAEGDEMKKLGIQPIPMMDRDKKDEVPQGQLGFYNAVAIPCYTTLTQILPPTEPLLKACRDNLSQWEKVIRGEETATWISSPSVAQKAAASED

`CCc1nc(C2CCCC2)n2nc(-c3ccc(OC)cc3)nc(Nc3cc(OC)c(OC)c(OC)c3)c12` [Example 26, N-[7Cyclopentyl-5-ethyl-2-(4-methoxyphenyl)imidazo[5,1-f][1,2,4]triazin-4-yl]-N-(3,4,5-trimethoxyphenyl)amine]: the melting point was 160 °C.

`COc1ccc(-c2nc(Nc3cc(C)c(OC)c(C)c3)c3c(C)nc(C)n3n2)cc1OC` [Example 14, 2-(3,4-Dimethoxyphenyl)-N-(4-methoxy-3,5-dimethylphenyl)-5,7-dimethylimidazo-[5,1-f][1,2,4]triazin-4-amine] came in with a melting point of 173 °C. `COc1ccc(-c2nc(Nc3cc(OC)c(OC)c(OC)c3)c3c(C)nc(C)n3n2)cc1Cl` [Example 34, 2-(3-Chloro-4-methoxyphenyl)-N-(3,4,5-trimethoxyphenyl)-5,7-dimethylimidazo-[5,1-f][1,2,4]triazin-4-amine] showed a melting point of 194 to 195 °C. Same read-out and setting: the figure for `COc1ccc(-c2nc(Oc3cc(OC)c(OC)c(OC)c3)c3c(C)nc(C)n3n2)cc1OC` [Example 22, 2-(3,4-Dimethoxyphenyl)-5,7-dimethyl-4-(3,4,5-trimethoxyphenoxy)imidazo[5,1-f]-[1,2,4]triazine] is 184 °C; for `COc1ccc(-c2nc(NCc3cc(OC)c(OC)c(OC)c3)c3c(C)nc(C4CCCC4)n3n2)cc1OC` [Example 17, 7-Cyclopentyl-2-(3,4-dimethoxyphenyl)-5-methyl-N-(3,4,5-trimethoxybenzyl)-imidazo[5,1-f][1,2,4]triazin-4-amine] it is 188 °C; for `COc1cc(OC)cc(-c2nc(Oc3cc(OC)c(OC)c(OC)c3)c3c(C)nc(C)n3n2)c1` [Example 27, 2-(3,5-Dimethoxyphenyl)-5,7-dimethyl-4-(3,4,5-trimethoxyphenoxy)imidazo[5,1-f]-[1,2,4]triazine] it is 220 °C. On to `CCOc1ccc(CCNc2nc(-c3ccc(Br)cc3)nn3c(C)nc(C)c23)cc1OC` [Example 35, 2-(4-Bromophenyl)-N-[2-(4-ethoxy-3-methoxyphenyl)ethyl]-5,7-dimethylimidazo-[5,1-f][1,2,4]triazin-4-amine], for which the melting point was in the range of 188 to 190 °C.

Consider `COc1ccc(CNc2nc(-c3ccc(Br)cc3)nn3c(C)nc(C)c23)cc1OC` [Example 51, 2-(4-Bromophenyl)-N-(3,4-dimethoxybenzyl)-5,7-dimethylimidazo[5,1-f]-[1,2,4]triazin-4-amine], for which the melting point was in the range of 119 to 122 °C. Turning to `COc1ccc(-c2nc(Oc3cc(OC)c(OC)c(OC)c3)c3c(C)nc(C)n3n2)cc1Cl` [Example 29, 2-(3-Chloro-4-methoxyphenyl)-5,7-dimethyl-4-(3,4,5-trimethoxyphenoxy)imidazo-[5,1-f][1,2,4]triazine], the melting point came to 213 °C. For the compound `COc1ccc(-c2nc(Oc3cc(OC)c(OC)c(OC)c3)c3c(C)nc(CC(C)C)n3n2)cc1Cl` [Example 30, 2-(3-Chloro-4-methoxyphenyl)-7-isobutyl-5-methyl-4-(3,4,5-trimethoxyphenoxy)-imidazo[5,1-f][1,2,4]triazine], the melting point was found to be 160 °C. On the same count and under the same terms, the figure for `COc1ccc(-c2nc(Nc3cc(C)c(OC)c(C)c3)c3c(C)nc(C4CCCC4)n3n2)cc1OC` [Example 15, 7-Cyclopentyl-2-(3,4-dimethoxyphenyl)-N-(4-methoxy-3,5-dimethylphenyl)-5-methylimidazo[5,1-f][1,2,4]triazin-4-amine] is 180 °C; for `COc1ccc(-c2nc(Nc3ccc(OC)c(OC)c3)c3c(C)nc(C)n3n2)cc1Cl` [Example 33, 2-(3-Chloro-4-methoxyphenyl)-N-(3,4-dimethoxyphenyl)-5,7-dimethylimidazo-[5,1-f][1,2,4]triazin-4-amine] it is 220 to 222 °C; for `COc1cc(OC)cc(-c2nc(Nc3cc(OC)c(OC)c(OC)c3)c3c(C)nc(C)n3n2)c1` [Example 54, 2-(3,5-Dimethoxyphenyl)-5,7-dimethyl-N-(3,4,5-trimethoxyphenyl)imidazo[5,1-f]-[1,2,4]triazin-4-amine] it is 176 to 179 °C. Regarding `CCCc1nc(C)c2c(Nc3cccc(O)c3)nc(-c3ccccc3OCC)nn12` [Example 43, 3-{[2-(2-Ethoxyphenyl)-5-methyl-7-propylimidazo[5,1-f][1,2,4]triazin-4-yl]-amino}phenol], the 50% inhibitory concentration (IC50) in data set [1] was found to be 2.4 µM. `COc1cccc(Nc2nc(-c3ccc(OC)c(OC)c3)nn3c(C4CCCC4)nc(C)c23)c1` [Example 23, 7-Cyclopentyl-2-(3,4-dimethoxyphenyl)-N-(3-methoxyphenyl)-5-methylimidazo-[5,1-f][1,2,4]triazin-4-amine] showed a melting point of 126 °C. Same read-out and setting: the figure for `CCCc1nc(C)c2c(Sc3ccc(NC(C)=O)cc3)nc(-c3ccccc3OCC)nn12` [Example 36, N-(4-{[2-(2-Ethoxyphenyl)-5-methyl-7-propylimidazo[5,1-f][1,2,4]triazin-4-yl]-sulphanyl}phenyl)acetamide] is 226 to 228 °C; for `COc1ccc(Nc2nc(-c3ccc(OC)c(OC)c3)nn3c(C)nc(C)c23)cc1Cl` [Example 13, N-(3-Chloro-4-methoxyphenyl)-2-(3,4-dimethoxyphenyl)-5,7-dimethylimidazo [5,1-f][1,2,4]triazin-4-amine] it is 195 °C; for `CCc1nc(C2CCCC2)n2nc(-c3ccc(OC)c(S(=O)(=O)N4CCOCC4)c3)nc(Oc3cc(OC)c(OC)c(OC)c3)c12` [Example 25, 7-Cyclopentyl-5-ethyl-2-[4-methoxy-3-(4-morpholinylsulphonyl)phenyl]-4-(3,4,5-trimethoxyphenoxy)imidazo[5,1-f][1,2,4]triazine] it is 119 °C. On the same count and under the same terms, the figure for `COc1ccc(-c2nc(SCc3cccnc3)c3c(C)nc(C)n3n2)cc1OC` [Example 4, 2-(3,4-Dimethoxyphenyl)-5,7-dimethyl-4-[(3-pyridinylmethyl)sulphanyl]imidazo-[5,1-f][1,2,4]triazine] is 161 °C; for `CCC(CC)c1nc(C)c2c(Oc3cc(OC)c(OC)c(OC)c3)nc(-c3ccc(OC)c(Cl)c3)nn12` [Example 32, 2-(3Chloro-4-methoxyphenyl)-7-(1-ethylpropyl)-5-methyl-4-(3,4,5-trimethoxyphenoxy)imidazo[5,1-f][1,2,4]triazine] it is 166 °C; for `CCCc1nc(C)c2c(Nc3cccc(Br)c3)nc(-c3ccccc3OCC)nn12` [Example 39, N-(3-Bromophenyl)-2-(2-ethoxyphenyl)-5-methyl-7-propylimidazo[5,1-f]-[1,2,4]triazin-4-amine] it is 96 °C. In turn, `COc1cc(Oc2nc(-c3ccc(Br)cc3)nn3c(C)nc(C)c23)cc(OC)c1OC` [Example 28, 2-(4-Bromophenyl)-5,7-dimethyl-4-(3,4,5-trimethoxyphenoxy)imidazo[5,1-f]-[1,2,4]triazine] had a melting point of 199 °C. The same measure, in the same setting: the figure for `CCCc1nc(C)c2c(NCc3ccc(OC)cc3OC)nc(-c3ccccc3OCC)nn12` [Example 46, N-(2,4-Dimethoxybenzyl)-2-(2-ethoxyphenyl)-5-methyl-7-propylimidazo[5,1-f]-[1,2,4]triazin-4-amine] is 98 to 99 °C. The same measure, in the same setting: the figure for `CCCc1nc(C)c2c(Oc3cc(OC)c(OC)c(OC)c3)nc(-c3ccccc3OCC)nn12` [Example 101, 2-(2-Ethoxyphenyl)-5-methyl-7-propyl-4-(3,4,5-trimethoxyphenoxy)imidazo[5,1-f]-[1,2,4]triazine] is 153 °C. Same read-out and setting: as for `COc1ccc(Nc2nc(-c3ccc(OC)c(OC)c3)nn3c(C4CCCC4)nc(C)c23)cc1` [Example 20, 7-Cyclopentyl-2-(3,4-dimethoxyphenyl)-N-(4-methoxyphenyl)-5-methylimidazo-[5,1-f][1,2,4]triazin-4-amine], the figure is 185 °C. As to `CCCc1nc(C)c2c(Nc3cc(OC)c(OC)c(OC)c3)nc(-c3ccccc3OCC)nn12` [Example 44, 2-(2-Ethoxyphenyl)-5-methyl-7-propyl-N-(3,4,5-trimethoxyphenyl)imidazo[5,1-f]-[1,2,4]triazin-4-amine], the melting point lay within 112 to 114 °C.

Source of the values: patent publication US6936609B2, “Imidazotriazines for use as phosphodiesterase inhibitors” (Bayer HealthCare AG, priority 2001, dated 2005).
